Assay results from patent publication US20240299429A1, “PREVENTIVE AND THERAPEUTIC AGENT FOR URINARY TRACT INFECTION CONTAINING 1-DEOXYMANNOSE” (SUNUS CO., LTD., priority 2022, published 2024).
Like-named read-outs stand apart in the source and are kept apart here.

Key:
[1] = Urinary recovery rate after oral administration; assay type: in vivo; conditions: urine; 1 g oral, human, up to eight hours after administration
Description: (§1) 1 g of 1-deoxymannose was dissolved in water to prepare a 20% w/w solution as a sample for oral administration. Urine was collected from six human subjects before administration of the sample. The total amount of sample was administered orally to each of the subjects, and the total amount of urine was collected one, two, three, four, six and eight hours after the administration. The urine collected at each of the points in time was subjected to volume measurement, and then filtered through a membrane filter with a pore size of 0.2 μm, followed by measurement of urinary 1-deoxymannose concentration by HPLC analysis.
The urinary recovery rate of 1-deoxymannose was determined by dividing the amount of recovered 1-deoxymannose, which was obtained from the collected urine volume and the urinary 1-deoxymannose concentration, by the dose. The urinary recovery rate is expressed by the following formula:
[formula] • Vn: Urine volume [ml] n hour (s) after administration • Cn: Urinary 1-deoxymannose concentration [mg/ml] n hour (s) after administration • M: Dose of 1-deoxymannose (=1000 mg)

[2] = Urinary concentration after oral administration to human subjects (HPLC); assay type: in vivo; conditions: 1 g oral
Description: HPLC devices: PU2089 plus, AS2055 plus and RI2031 plus (series number) manufactured by JASCO Corporation; MODEL 556 manufactured by GL Sciences Inc. • Columns: MITSUBISHI MCI GEL CK08S; two columns coupled together • Oven temperature: 60° C. • Eluent: Water • Detector: Differential refractometer • Flow rate: 1 ml/minute • Injection volume: 100 μL
The determination of 1-deoxymannose was carried out using a calibration curve produced by using the 1-deoxymannose prepared as above. The determination of mannose was carried out using a calibration curve produced by using special grade mannose as a reagent.
as §1
Mannose, instead of 1-deoxymannose, was orally administered, followed by collection of urine, in the same manner as in Example 1. […]

Fim H lectin = Fim H lectin (Escherichia coli, UniProt P08191); conditions: read-out: dissociation constant (KD) against Fim H lectin (converted), cited from earlier work
[3] = tested on: Escherichia coli (NBRC 3301); assay: Utilization of sugars by Escherichia coli (turbidity in M9 minimal medium); assay type: cell-based; conditions: 1% sugar in M9 minimal medium, 37° C., compared with mannose and glucose
Description: In order to evaluate the utilization of 1-deoxymannose by Escherichia coli (NBRC 3301), the following experiment was conducted.
M9 minimal medium (obtained by adding MgSO4 and CaCl2 to Difco™ M9 Minimal Salt) containing 2 ml of 1% glucose was used. Escherichia coli (NBRC 3301) was subjected to shaking at 37° C. for 17 hours to prepare a culture solution. 10 μL of the culture solution was added to 2 ml of M9 minimal media containing 1%1-deoxymannose, 1% mannose, and 1% glucose, respectively, followed by shaking culture at 37° C. During culture, 100 μL of the culture solution was serially sampled and measured for its turbidity (600 nm) using a cell with an optical path length of 1 cm. The growth of Escherichia coli was evaluated based on increased turbidity. The results of the measurement are shown in FIG. 3, in which Example 2, Comparative Example 2, and Comparative Example 3 correspond to the culture solution containing 1-deoxymannose, the culture solution containing mannose, and the culture solution containing glucose, respectively.

[4] = Urine volume after oral administration; assay type: in vivo; conditions: 1 g oral, human, all points in time up to eight hours
Description: as §1
Mannose, instead of 1-deoxymannose, was orally administered, followed by collection of urine, in the same manner as in Example 1.
In FIG. 2, the vertical axis indicates the percentage of the urine volume after administration of 1-deoxymannose in Example 1 relative to the urine volume after administration of mannose in Comparative Example 1 taken as 100%, at the respective points in time.

Sequence of Fim H lectin (P08191 22-300): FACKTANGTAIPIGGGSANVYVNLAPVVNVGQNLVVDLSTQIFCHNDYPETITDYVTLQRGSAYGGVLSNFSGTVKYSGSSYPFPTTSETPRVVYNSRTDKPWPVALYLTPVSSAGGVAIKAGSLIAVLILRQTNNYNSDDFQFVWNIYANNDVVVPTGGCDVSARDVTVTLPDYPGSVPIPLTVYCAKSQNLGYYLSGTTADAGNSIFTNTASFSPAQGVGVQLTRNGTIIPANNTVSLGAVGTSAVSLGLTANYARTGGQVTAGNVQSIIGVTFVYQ

For `OC[C@H]1OC[C@@H](O)[C@@H](O)[C@@H]1O` [1-deoxymannose, 1,5-anhydro-D-mannitol], the dose excreted [1] was 43.3 ± 9.03%, the highest urinary concentration ([2]; average of six subjects, two hours after administration) was 2.12 mg/mL and the detection in urine ([2]; six subjects, urine collected one to eight hours after administration, detection limit 0.1 mg/ml) was “detected”. For the same compound, the Kd (Fim H lectin; expressed as mass concentration) was 1.13 µM, the Kd (Fim H lectin) was 1.13 µM and the “turbidity (600 nm) of Escherichia coli culture, growth” value [3] was “did not have increased turbidity”. For the same compound, the “urine volume versus mannose administration group” value [4] was “larger volume of urine”.
